Measurements from ChEMBL document CHEMBL3763146 (J Med Chem, 2016).
pEC50, pIC50: −log10 of the molar value.

Assays:
[1] = target: Beta-3 adrenergic receptor (Canis lupus familiaris, UniProt O02662); assay: Agonist activity at dog beta3 adrenergic receptor expressed in CHO cells assessed as accumulation of cAMP after 30 mins by TR-FRET assay; type: functional, cell-based
[2] = target: Beta-3 adrenergic receptor (Rattus norvegicus, UniProt P26255); assay: Agonist activity at rat beta3 adrenergic receptor expressed in CHO cells assessed as accumulation of cAMP after 30 mins by TR-FRET assay in presence of 40% serum; type: functional, cell-based
[3] = target: Beta-2 adrenergic receptor (Homo sapiens, UniProt P07550)
Description: Displacement of [125]I-cyanopindolol from human recombinant beta2 adrenergic receptor after 1 hr by scintillation counting method

[4] = Stability in rat plasma assessed as parent compound remaining at 24 hrs by LC-MS analysis; type: ADME, cell-free; details: read-out: Stability
[5] = Intrinsic clearance in dog liver microsomes; type: ADME, Canis lupus familiaris; details: read-out: CLH
[6] = species: Rattus norvegicus; assay: Toxicity in Sprague-Dawley rat assessed as antemortem parameters measured up to 6 months; type: organism-based; details: in vivo
[7] = target: Beta-3 adrenergic receptor (Macaca mulatta) (UniProt Q28524); assay: Agonist activity at rhesus monkey beta3 adrenergic receptor expressed in CHO cells assessed as accumulation of cAMP after 30 mins by TR-FRET assay relative to (R)-(-)-isoproterenol; type: functional, cell-based
[8] = target: Cytochrome P450 2C19 (Homo sapiens, UniProt P33261); assay: Inhibition of CYP2C19 in human liver microsomes; type: ADME
[9] = Drug recovery in bile duct cannulated rat urine at 10 mg/kg, po measured over 48 hrs; type: ADME, organism-based; details: read-out: Drug recovery
[10] = Oral bioavailability in cynomolgus monkey at 2 mg/kg; type: ADME, organism-based, Macaca fascicularis; details: in vivo
[11] = target: T1, Beta-3 adrenergic receptor (Homo sapiens, UniProt P13945); assay: Agonist activity at human beta3 adrenergic receptor expressed in CHO cells assessed as accumulation of cAMP after 30 mins by TR-FRET assay relative to (R)-(-)-isoproterenol; type: functional, cell-based
Target sequence in this assay (P13945 whole entry, looked up): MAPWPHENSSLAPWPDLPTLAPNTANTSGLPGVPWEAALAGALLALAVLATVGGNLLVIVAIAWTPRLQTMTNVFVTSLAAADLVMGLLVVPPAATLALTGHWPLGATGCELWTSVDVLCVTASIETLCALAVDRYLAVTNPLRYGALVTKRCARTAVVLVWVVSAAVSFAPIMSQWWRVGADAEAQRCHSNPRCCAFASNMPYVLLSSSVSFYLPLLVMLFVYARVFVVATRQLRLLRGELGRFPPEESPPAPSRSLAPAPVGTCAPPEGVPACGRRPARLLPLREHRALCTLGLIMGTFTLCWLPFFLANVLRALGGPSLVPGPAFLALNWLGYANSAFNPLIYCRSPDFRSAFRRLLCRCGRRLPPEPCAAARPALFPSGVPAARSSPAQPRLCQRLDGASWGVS

[12] = Stability in rhesus monkey plasma assessed as parent compound remaining at 24 hrs by LC-MS analysis; type: ADME, cell-free, Macaca mulatta; details: read-out: Stability
[13] = tested on: Cynomolgus monkey; assay: Unbound clearance in cynomolgus monkey at 0.5 mg/kg, iv or 2 mg/kg, po; type: ADME, organism-based, Macaca fascicularis; details: in vivo
[14] = Drug recovery in bile duct cannulated rat feces at 10 mg/kg, po measured over 48 hrs; type: ADME, organism-based; details: faeces, read-out: Drug recovery
[15] = target: Cytochrome P450 2D6 (Homo sapiens, UniProt P10635); assay: Inhibition of CYP2D6 in human liver microsomes assessed as dextraomethorphan O-demethylation; type: ADME
[16] = Plasma clearance in rat at 1 mg/kg, iv or 2 mg/kg, po; type: ADME, organism-based
[17] = Chemical stability of the compound under forced degradation condition; type: physicochemical
[18] = tested on: Cynomolgus monkey; assay: Toxicity in cynomolgus monkey assessed as postmortem parameters measured up to 9 months; type: organism-based, Macaca fascicularis; details: in vivo
[19] = Half life in dog at 0.5 mg/kg, iv or 2 mg/kg, po; type: ADME, organism-based, Canis lupus familiaris; details: in vivo
[20] = tested on: MDR1 (human); assay: Apparent permeability of the compound in pig LLC-PK1 cells expressing human MDR1 at 5 uM measured at 3 hrs by LC/MS/MS analysis; type: ADME, cell-based, Sus scrofa
[21] = tested on: Hepatocyte; assay: Increase in CYP3A4 mRNA expression in human hepatocytes up to 10 uM; type: ADME, cell-based
[22] = tested on: Rhesus monkey; assay: Unbound clearance in rhesus monkey at 0.5 mg/kg, iv or 2 mg/kg, po; type: ADME, organism-based, Macaca mulatta; details: in vivo
[23] = tested on: Rattus norvegicus; assay: Increase in circulating glycerol level in iv infused Sprague-Dawley rat after 45 mins by liquid chromatography-tandem mass spectrometric analysis; type: functional
[24] = Plasma clearance in cynomolgus monkey at 0.5 mg/kg, iv or 2 mg/kg, po; type: ADME, organism-based, Macaca fascicularis
[25] = target: Beta-3 adrenergic receptor (Macaca mulatta, UniProt Q28524); assay: Agonist activity at rhesus monkey beta3 adrenergic receptor expressed in CHO cells assessed as accumulation of cAMP after 30 mins by TR-FRET assay in presence of 40% serum; type: functional, cell-based
[26] = Drug recovery in bile duct cannulated rat bile at 10 mg/kg, po measured over 48 hrs; type: ADME, organism-based; details: read-out: Drug recovery
[27] = Intrinsic clearance in human liver microsomes; type: ADME; details: read-out: CLH
[28] = target: Cytochrome P450 2C8 (Homo sapiens, UniProt P10632); assay: Inhibition of CYP2C8 in human liver microsomes; type: ADME
[29] = target: T1, Beta-3 adrenergic receptor; assay: Agonist activity at human adrenergic beta3 receptor expressed in CHO cells assessed as accumulation of cAMP after 30 mins by TR-FRET assay in presence of 40% serum; type: functional, cell-based
Target sequence in this assay (P13945 whole entry): as the sequence (P13945 whole entry, looked up) above

[30] = Solubility of the compound in simulated gastric fluid; type: ADME
[31] = tested on: Cynomolgus monkey; assay: Dose normalized total AUC in cynomolgus monkey at 2 mg/kg, po; type: ADME, organism-based, Macaca fascicularis; details: in vivo
[32] = target: Beta-3 adrenergic receptor (Macaca mulatta) (UniProt Q28524); assay: Agonist activity at rhesus monkey beta3 adrenergic receptor expressed in CHO cells assessed as accumulation of cAMP after 30 mins by TR-FRET assay in presence of 40% serum relative to (R)-(-)-isoproterenol; type: functional, cell-based
[33] = Drug recovery in bile duct cannulated rat bile at 5 mg/kg, iv measured over 48 hrs; type: ADME, organism-based; details: read-out: Drug recovery
[34] = tested on: Cynomolgus monkey; assay: Dose normalized fAUC in cynomolgus monkey at 2 mg/kg, po; type: ADME, organism-based, Macaca fascicularis; details: in vivo
[35] = target: Cytochrome P450 2B6 (Homo sapiens, UniProt P20813); assay: Inhibition of CYP2B6 in human liver microsomes; type: ADME
[36] = Oral bioavailability in dog at 2 mg/kg; type: ADME, organism-based, Canis lupus familiaris; details: in vivo
[37] = target: Cytochrome P450 3A4 (Homo sapiens, UniProt P08684); assay: Time-dependent inhibition of CYP3A4 in human liver microsomes up to 50 uM; type: ADME
[38] = Half life in rhesus monkey at 0.5 mg/kg, iv or 2 mg/kg, po; type: ADME, organism-based, Macaca mulatta; details: in vivo
[39] = tested on: Rattus norvegicus; assay: Unbound clearance in rat at 1 mg/kg, iv or 2 mg/kg, po; type: ADME, organism-based; details: in vivo

Chain of Beta-3 adrenergic receptor (Macaca mulatta) (Q28524 whole entry): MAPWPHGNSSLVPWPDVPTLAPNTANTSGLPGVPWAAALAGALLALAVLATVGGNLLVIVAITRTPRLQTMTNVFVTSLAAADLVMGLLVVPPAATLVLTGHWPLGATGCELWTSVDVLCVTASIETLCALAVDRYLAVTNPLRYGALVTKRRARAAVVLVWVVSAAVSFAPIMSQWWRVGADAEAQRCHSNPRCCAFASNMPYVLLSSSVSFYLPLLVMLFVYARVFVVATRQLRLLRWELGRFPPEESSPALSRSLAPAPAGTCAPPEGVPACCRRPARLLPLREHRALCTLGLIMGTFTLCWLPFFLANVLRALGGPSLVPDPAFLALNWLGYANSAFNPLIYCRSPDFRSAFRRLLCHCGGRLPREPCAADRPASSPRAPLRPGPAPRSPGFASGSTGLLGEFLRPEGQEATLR
Chain of Cytochrome P450 2D6 (P10635 whole entry): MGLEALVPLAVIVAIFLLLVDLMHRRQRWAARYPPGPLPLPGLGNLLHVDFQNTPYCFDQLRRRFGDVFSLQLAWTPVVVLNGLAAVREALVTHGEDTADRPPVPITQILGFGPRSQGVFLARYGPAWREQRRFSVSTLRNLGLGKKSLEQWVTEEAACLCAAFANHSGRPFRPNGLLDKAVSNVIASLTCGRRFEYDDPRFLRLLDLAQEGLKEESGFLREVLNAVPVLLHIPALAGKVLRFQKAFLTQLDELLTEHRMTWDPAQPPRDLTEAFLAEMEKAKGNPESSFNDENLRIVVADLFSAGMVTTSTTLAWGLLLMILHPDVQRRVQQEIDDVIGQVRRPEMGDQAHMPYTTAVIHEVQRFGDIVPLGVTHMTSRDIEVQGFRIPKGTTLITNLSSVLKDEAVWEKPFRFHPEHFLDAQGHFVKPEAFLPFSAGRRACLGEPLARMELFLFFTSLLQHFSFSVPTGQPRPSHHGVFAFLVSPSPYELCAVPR
Chain of Beta-3 adrenergic receptor (Canis lupus familiaris, UniProt O02662) (O02662 whole entry): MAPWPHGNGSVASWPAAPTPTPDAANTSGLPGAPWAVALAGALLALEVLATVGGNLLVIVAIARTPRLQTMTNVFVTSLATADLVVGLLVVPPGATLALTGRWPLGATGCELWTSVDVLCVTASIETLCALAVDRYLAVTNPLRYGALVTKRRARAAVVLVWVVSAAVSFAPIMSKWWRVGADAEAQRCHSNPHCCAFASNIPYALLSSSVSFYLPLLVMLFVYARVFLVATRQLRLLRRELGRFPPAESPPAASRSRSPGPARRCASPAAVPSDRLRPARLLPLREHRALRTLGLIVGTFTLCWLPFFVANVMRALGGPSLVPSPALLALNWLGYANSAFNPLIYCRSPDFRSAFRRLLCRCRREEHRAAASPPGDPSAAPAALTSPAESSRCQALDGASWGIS
Chain of Cytochrome P450 2C8 (P10632 whole entry): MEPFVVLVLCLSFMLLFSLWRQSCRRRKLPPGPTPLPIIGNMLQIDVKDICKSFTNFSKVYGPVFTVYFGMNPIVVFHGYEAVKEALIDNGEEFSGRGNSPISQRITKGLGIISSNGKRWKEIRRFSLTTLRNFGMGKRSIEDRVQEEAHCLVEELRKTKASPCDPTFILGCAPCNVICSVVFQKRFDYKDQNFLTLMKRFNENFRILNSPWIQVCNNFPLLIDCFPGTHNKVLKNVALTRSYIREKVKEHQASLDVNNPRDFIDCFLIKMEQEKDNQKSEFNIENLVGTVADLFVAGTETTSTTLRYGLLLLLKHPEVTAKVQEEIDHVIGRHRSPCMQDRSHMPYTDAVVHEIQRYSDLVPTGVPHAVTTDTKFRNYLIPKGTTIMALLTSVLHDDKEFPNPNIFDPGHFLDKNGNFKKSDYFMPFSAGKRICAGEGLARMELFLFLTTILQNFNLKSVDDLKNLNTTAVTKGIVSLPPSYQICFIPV
Chain of Cytochrome P450 2C19 (P33261 whole entry): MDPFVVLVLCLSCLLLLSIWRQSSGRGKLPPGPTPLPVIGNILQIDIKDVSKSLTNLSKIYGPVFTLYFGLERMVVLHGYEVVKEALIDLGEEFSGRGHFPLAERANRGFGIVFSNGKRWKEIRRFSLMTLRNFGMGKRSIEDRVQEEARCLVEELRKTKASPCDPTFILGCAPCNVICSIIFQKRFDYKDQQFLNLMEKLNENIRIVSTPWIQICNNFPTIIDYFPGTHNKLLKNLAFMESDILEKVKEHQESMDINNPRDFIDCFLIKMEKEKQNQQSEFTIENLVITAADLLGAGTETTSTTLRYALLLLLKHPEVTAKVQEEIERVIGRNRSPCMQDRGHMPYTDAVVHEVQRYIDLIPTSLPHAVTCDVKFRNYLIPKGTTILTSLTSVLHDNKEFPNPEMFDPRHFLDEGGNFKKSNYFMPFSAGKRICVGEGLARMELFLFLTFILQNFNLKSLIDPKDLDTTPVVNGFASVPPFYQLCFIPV
Chain of Beta-3 adrenergic receptor (Macaca mulatta, UniProt Q28524) (Q28524 whole entry): as the sequence (Q28524 whole entry) above
Chain of Beta-3 adrenergic receptor (Rattus norvegicus, UniProt P26255) (P26255 whole entry): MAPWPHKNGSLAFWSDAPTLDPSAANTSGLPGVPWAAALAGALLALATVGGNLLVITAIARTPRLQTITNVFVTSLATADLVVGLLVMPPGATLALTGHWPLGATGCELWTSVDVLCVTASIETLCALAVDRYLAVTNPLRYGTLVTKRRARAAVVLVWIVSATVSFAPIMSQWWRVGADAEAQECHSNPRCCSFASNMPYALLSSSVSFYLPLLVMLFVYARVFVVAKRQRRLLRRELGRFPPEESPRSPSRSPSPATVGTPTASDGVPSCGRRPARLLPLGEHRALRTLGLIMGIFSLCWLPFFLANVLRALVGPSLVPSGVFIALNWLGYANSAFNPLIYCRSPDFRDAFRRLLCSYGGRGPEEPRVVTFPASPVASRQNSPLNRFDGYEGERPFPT
Chain of Beta-2 adrenergic receptor (P07550 whole entry): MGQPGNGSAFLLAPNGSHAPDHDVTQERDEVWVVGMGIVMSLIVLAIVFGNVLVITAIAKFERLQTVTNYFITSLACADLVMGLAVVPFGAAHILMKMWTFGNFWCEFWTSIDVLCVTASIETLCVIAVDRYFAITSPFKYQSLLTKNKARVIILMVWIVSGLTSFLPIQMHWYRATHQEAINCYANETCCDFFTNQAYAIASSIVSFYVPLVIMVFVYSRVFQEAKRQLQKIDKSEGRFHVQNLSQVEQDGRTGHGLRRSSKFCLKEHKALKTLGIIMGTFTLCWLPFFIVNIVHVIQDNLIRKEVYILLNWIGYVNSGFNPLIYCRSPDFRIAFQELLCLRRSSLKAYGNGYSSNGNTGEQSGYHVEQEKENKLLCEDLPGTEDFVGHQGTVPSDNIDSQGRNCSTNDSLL
Chain of Cytochrome P450 2B6 (P20813 whole entry): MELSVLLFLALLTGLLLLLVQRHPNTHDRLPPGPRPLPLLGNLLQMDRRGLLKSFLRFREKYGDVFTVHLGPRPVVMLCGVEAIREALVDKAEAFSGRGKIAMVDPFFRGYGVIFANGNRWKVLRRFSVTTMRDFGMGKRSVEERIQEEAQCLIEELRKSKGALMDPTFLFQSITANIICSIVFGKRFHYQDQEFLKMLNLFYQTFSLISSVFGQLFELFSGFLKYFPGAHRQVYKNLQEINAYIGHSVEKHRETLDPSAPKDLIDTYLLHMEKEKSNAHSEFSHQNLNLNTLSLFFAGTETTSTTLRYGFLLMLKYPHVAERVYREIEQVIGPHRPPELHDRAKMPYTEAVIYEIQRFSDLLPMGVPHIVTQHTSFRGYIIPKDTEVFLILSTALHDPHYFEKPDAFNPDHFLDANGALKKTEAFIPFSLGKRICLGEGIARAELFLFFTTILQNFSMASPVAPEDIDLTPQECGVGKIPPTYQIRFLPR
Chain of Cytochrome P450 3A4 (P08684 whole entry): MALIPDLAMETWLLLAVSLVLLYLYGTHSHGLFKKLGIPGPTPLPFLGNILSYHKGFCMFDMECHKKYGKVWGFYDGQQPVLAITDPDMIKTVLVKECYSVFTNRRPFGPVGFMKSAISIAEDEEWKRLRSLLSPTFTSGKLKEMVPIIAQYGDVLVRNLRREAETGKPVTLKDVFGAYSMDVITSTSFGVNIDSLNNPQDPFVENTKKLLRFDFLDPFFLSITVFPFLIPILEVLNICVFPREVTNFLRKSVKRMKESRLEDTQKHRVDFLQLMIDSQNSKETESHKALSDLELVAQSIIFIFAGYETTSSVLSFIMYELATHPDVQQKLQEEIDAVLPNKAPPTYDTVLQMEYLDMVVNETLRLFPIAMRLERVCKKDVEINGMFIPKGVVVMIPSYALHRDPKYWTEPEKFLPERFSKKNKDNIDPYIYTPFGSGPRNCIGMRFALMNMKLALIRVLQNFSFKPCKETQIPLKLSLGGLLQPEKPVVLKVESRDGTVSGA

- pEC50 [1]: 7.96
- pEC50 [2]: 6.91
- pIC50 [3]: < 4.70
- remaining at 24 h [4]: 100%
- CLint scaled [5]: 0.78 L/h/kg
- max activation [7]: 87%
- pIC50 [8]: < 4.00
- dose excreted at 48 h [9]: 32%
- bioavailability [10]: 46%
- max activation [11]: 84%
- remaining at 24 h [12]: 93%
- CL free [13]: 2.04 L/h/kg
- dose excreted at 48 h [14]: 19%
- pIC50 [15]: < 4.00
- clearance [16]: 0.84 L/h/kg
- Stability [17]: Stable
- half-life [19]: 13 h
- Papp at 3 h, 5 µM [20]: 24 nm/s
- Activity [21]: Not Active
- CL free [22]: 1.98 L/h/kg
- clearance [24]: 1.2 L/h/kg
- pEC50 [25]: 8.15
- dose excreted at 48 h [26]: 36%
- CLint scaled [27]: < 0.6 L/h/kg
- pIC50 [28]: < 4.00
- pEC50 [29]: 8.80
- solubility [30]: > 4 mg/mL
- AUC/dose [31]: 870 nM·h/mg/kg
- max activation [32]: 103%
- dose excreted at 48 h [33]: 33%
- fAUC/dose [34]: 500 nM·h/mg/kg
- pIC50 [35]: < 4.00
- bioavailability [36]: 44%
- TDI [37]: Not Active
- half-life [38]: 14 h
- CL free [39]: 4.02 L/h/kg
Compound: O=C(Nc1ccc(C[C@@H]2CC[C@H]([C@H](O)c3ccccc3)N2)cc1)[C@@H]1CCc2nccc(=O)n21 [VIBEGRON]
- Activity [6]: Non-toxic
- Activity [18]: Non-toxic
- Activity [23]: Dose-dependent effect
- minimal effective dose ([23]; 0.75 h, read-out: MED): 0.3 mg/kg
